Assay [1] addresses T1, HLA-A*0201 (Homo sapiens, UniProt P04439, D140Y/D185E/D98H/E176V/E277Q/G131W/G231S/I119V/I121R/I166T/I218V/L300P/L318F/N151K/N90K/P208A/P217A/Q86G/Q94H/R138H/R169H/T345S).
T1 construct: Tap−/− cells expressing the studied HLA-class I molecule; endogenous in cells; host or cells: T2 cells (Tap-/-, HLA-A*0201)
The experiment in a line: Measurement of peptide relative affinity to HLA-A*0201 on T2 cells. The assay is classed as binding. Conditions: HLA-A*0201, T2 cells; ratio to reference peptide HIVpol 589; the lower the RA-value, the stronger the binding. The method, then: Measurement of Peptide Relative Affinity to HLA class I. Tap−/− cells expressing the studied HLA-class I molecule (3×10^5 cells/mL) were incubated with various concentrations of peptides ranging from 100 μM to 0.1 μM in serum-free RPMI 1640 medium supplemented with 100 ng/ml of human β-2m at 37° C. for 16 hours. Cells were then washed twice and stained with the specific anti-class I mAb followed by FITC conjugated goat anti mouse Ig mAb to quantify the expression of HLA-A*0201. For each peptide concentration, the HLA-specific staining was calculated as the % of the staining obtained with 100 μM of the reference peptide. The relative affinity (RA) is determined as: RA=(Concentration of each peptide that induces 20% of HLA expression/Concentration of the reference peptide that induces 20% of HLA expression). The lower the RA-value, the stronger is the peptide binding to HLA. The mean RA value for each peptide is determined from at least three independent experiments. […]
(§1) The affinity of each peptide was assayed experimentally by determination of the Relative Affinity: the necessary peptide dose to stabilise a reference quantity of HLA-A*0201 molecules at the surface of T2 cells; and the stability of each peptide was assayed by determination of the half-life of the peptide/HLA-A*0201 molecule complex (DC50: dissociation complex 50).

Assay [2] concerns COS cells transfected with both Hsp70 and HHD expression vectors. The experiment in a line: Peptide processing assay on COS-transfected cells, TNF-α secretion by murine CTL. The assay is classed as cell-based, simian. An excerpt:
After contact of murine CTL lines with transfected COS cell, CTL recognition of COS cells is expressed as CTL secretion of TNF-α dosed in supernatant (X Axis, TNF-α ranges from 0 to 500 pg/ml). The graphs represent TNF-α dosage by cytotoxic cell lines, respectively mCTL380, mCTL391 mCTL393 and mCTL134, after contact with COS cells. In each graph, upper to lower bars represent the different cells in contact with CTL, respectively: negative control (no COS cell), COS cells, COS cells transfected with Hsp70 expression plasmid, COS cells transfected with HHD expression plasmid, positive control (COS cells transfected with HHD and pulsed with the respective peptide), COS cells transfected with HHD and with Hsp70 expression plasmids.
Peptide Processing Assay on COS-Transfected Cells. 2.2×10^4 simian COS cells were plated in flat-bottom 96 well plates in DMEM 10% FCS, in quadruplicates for each condition. 18 hours later, the medium is discarded, and 100 ng of each DNA plasmid, encoding for Hsp70 and HLA class I molecules, is put in contact with COS cells in DMEM 10% Nuserum […] Chloroquine 10 mg/mL DEAE Dextran. After 4 hours of incubation at 37° C., transfection medium is discarded, and 50 μL PBS 10% DMSO is added for 2 minutes for integration of plasmids. It is then discarded and transfected COS cells are placed in DMEM 10% FCS for 40 hours. Transfected COS cells are then used with 5×10^4 murine CTL in a TNF-α secretion assay.
(§2) TNF-α Secretion Assay. Transfected COS cells on day 4 or 10^5 target tumor cells were plated in 50 μL RPMI 10% FCS and when necessary incubated with 10 μM peptide for 1 hour. In blocking experiments, anti-HLA class I antibody w6/32 or an irrelevant antibody were incubated with target cells for 1 h30. 5×10^4 T cells were then added in 50 μL RPMI 10% FCS and incubated for 6 hours. Each condition was tested in quadruplicates. 50 μL of the supernatant was collected. Standard dilutions were prepared in 50 μL with final doses of TNF-α (kindly provided by I. Apfler, Bender Wien, Austria) ranging from 10^4 to 0.08 pg/mL. On both the supernatants and the standards were added 50 μL of 3×10^4 TNF-α sensitive WEHI-164c13 cells. They were incubated for 16 hours at 37° C. (23). Inhibition of cell proliferation was evaluated by the MTT colorimetric method. Briefly, 50 μL of MTT at 2.5 mg/mL (Sigma-Aldrich) was added and incubated for 4 hours at 37° C. Cells were then lyzed with 100 μL of a pH4.7 33% N,N-dimethyl formamide (Sigma-Aldrich) 20% SDS solution in water. Two hours after cells lysis, OD was measured at 550 nm on a Dynatech MR5000 spectrophotometer. TNF-α quantitation was calculated by linear interpolation with the standard dilutions.

Assay [3] deals with MCF-7 and SAOS tumor cell lines. The experiment in a line: Recognition by murine CTL of epitopes at the surface of human tumor cells, TNF-α secretion assay. The assay is classed as cell-based. The following applies: HLA-A*0201+ Hsp70+ tumor cells.
Excerpt: CTL recognition of tumoral cells is expressed as CTL secretion of TNF-α dosed in supernatant (X Axis, TNF-α ranges from 0 to 1000 pg/ml) after contact with the cells. Upper to lower bars represent the different cells and reagents in contact with CTL, respectively: 2 negative controls (M113, M44), SAOS, MCF-7, MCF-7 blocked with anti-class I (w6/32) antibody before mixed culture, and MCF-7 blocked with an irrelevant antibody before mixed culture.
as §2
We studied whether the over-expression of Hsp70 described in certain tumor cell lines was high enough to enable these epitopes to be presented at the surface of tumor cells. We addressed this question with our already available high-avidity murine CTLs, hypothesizing that such a high CTL avidity enables the recognition of the highest-Hsp70 expressing human tumor cells. […]

The subject of assay [4] is human CD8+ cells. The experiment in a line: Generation of CTL from human PBMC with peptide- or polyepitope-pulsed dendritic cells, intracellular IFN-γ staining. Conditions: CD8+ cells stimulated with peptide-loaded dendritic cells. The assay is classed as cell-based. As for the experimental part: The three graphs entitled hCTL380, hCTL391 and hCTL393 represent respectively the testing of p380, p391 and p393-specific human CTLs. P391 and p393 specific CTLs were tested towards EBV-B cells, whereas p380 specific CTLs were tested towards T2 cells. The number of IFN-γ producing CD8+ cells for 10^5 CD8+ cells upon activation, indicated on the X-axis, was measured, as assessed by staining cells for CD8 and intracellular IFN-γ.
Polyepitope induced human CTL were tested for their capacity to respond to T2 cells loaded with p380, p391 or p393 or the irrelevant HIVpol589 peptides in intracellular IFN-γ staining. The X axis represents the number of IFNγ-producing CTL/10^5 CD8+ cells. On the Y axis, upper to lower bars represent the results obtained when cells were loaded respectively with irrelevant HIV pol589 peptides, or with p380, p391 or p393 peptides.
Generation of CTL from Human Peripheral Blood Mononuclear Cells (PBMC). Fresh PBMC collected from healthy donnors under informed consent were serologically typed for the studied HLA-class I molecule, and purified using standard Ficoll-Paque (Amersham Pharmacia Biotech AB). Dendritic cells (DC) were prepared by cultivating plastic adherent PBMC in the presence of 500 U/mL GM-CSF (R&D Systems Inc. MN) and 500 U/mL IL-4 (R&D Systems Inc. MN) for 7 days such as described in Keogh et al. (30).
DC were then maturated for 2 days with 2 μg/mL anti-CD40 antibody and 100 ng/mL Poly I:C (Sigma-Aldrich). […] Autologous CD8+ purified T-cells (CD8 MicroBeads, Miltneyi Biotec Inc. CA) were stimulated weekly with DC pulsed for two hours with peptide (10 μM) and irradiated at 35Gy at a T:DC ratio of 10:1 in culture medium (CM; RPMI 1640 supplemented with 10% human AB serum, […] L-glutamine and gentamycin). 1×10^3 U/mL IL-6 and SU/mL IL-12 (R&D Systems Inc. MN) were added during the first week of culture. 20 U/mL clinical grade IL-2 (Proleukin, Chiron Corp.) and 10 ng/mL IL-7 (R&D Systems Inc. MN) were added during the next two weeks of culture. 7 days after the last stimulation with DC, peptide specific IFN-γ secreting CD8+ T cells were magnetically sorted following encounter of the peptide presented by HLA-A*0201+ B-EBV cells (IFN-γ Secretion Assay, Miltenyi Biotec Inc. CA). The characterization of peptide-specific T cells was tested 7 days after the purification step.
Intracellular IFN-g Staining. 5×10^4 T cells were incubated with 10^5 stimulating peptide loaded EBV-B cells or with 10^5 tumor cells in the presence of 20 μg/ml brefeldin-A (Sigma, Oakville, Canada). Six hours later, they were washed, stained with r-phycoerythrin-conjugated anti-CD8 antibody (Caltag Laboratories, Burlingame, Calif.) in PBS for 25 min at 4° C., washed and fixed with 4% PFA. Then, cells were permeabilized with PBS 0.5% BSA 0.2% saponin (Sigma, Oakville, Canada), and stained with allophycocyanin-conjugated anti-IFNg mAb (PharMingen, Mississauga, Canada) for 25 min at 4° C. Cells were analyzed on FACSCalibur (Becton Dickinson, Mountain View, Calif.).

The subject of assay [5] is HHD mice. The experiment in a line: Generation of CTL in HLA-A*0201 transgenic HHD mice (immunogenicity). The assay is classed as in vivo, mouse. As for the experimental part: Generation of CTL in HLA-transgenic mice. HLA-transgenic mice were injected subcutaneously at the base of the tail with 100 μg of peptide emulsified in incomplete Freund's adjuvant (IFA) in the presence of 140 μg of the I-A^b restricted HBVcore-derived T-helper epitope (128-140; sequence TPPAYRPPNAPIL). After 11 days, spleen cells (5×10^7 cells in 10 mL) were stimulated in vitro with peptide (10 μM). On day 6 of culture, the bulk responder populations were tested for specific cytotoxicity. Upon response, the CTL line was then weekly re-stimulated in vitro with 20×10^6 35Gy irradiated spleen cells in the presence of 1 to 0.1 μM peptide and 50 U/mL IL-2 (Proleukin, Chiron Corp.). Cytotoxicity was assayed 6 days after the last stimulation and TNF-α secretion 11-13 days after, with the addition of 50 U/mL IL-2 on day 7. HHD mice transgenic for HLA-A*0201 were used. B7B7 Kd mice and mice transgenic for HLA-A*0301 are used for the study of the HLA-B*0701 and HLA-A*0301 restricted peptides respectively.

Assay [6] concerns the target T2, HLA-A*0201/peptide complex (Homo sapiens, UniProt P04439, D140Y/D185E/D98H/E176V/E277Q/G131W/G231S/I119V/I121R/I166T/I218V/L300P/L318F/N151K/N90K/P208A/P217A/Q86G/Q94H/R138H/R169H/T345S).
T2 construct: Tap−/− cells expressing the studied HLA-class I molecule; endogenous in cells; host or cells: T2 cells (Tap-/-, HLA-A*0201)
The experiment in a line: Assessment of peptide/HLA class I complex stability (DC50). The assay is classed as binding. The following applies: half life (DC50) of the HLA-A*0201/peptide complex. The method, then:
Assessment of Peptide/HLA class I Complex Stability. Tap−/− cells (10^6/mL) were incubated overnight with 100 μM of each peptide in serum-free RPMI 1640 medium supplemented with 100 ng/mL of […] at 37° C. Cells were then washed four times to remove free peptide, incubated with Brefeldin A (10 μg/mL) for 1 hour to block cell surface expression of newly synthesized HLA molecules, washed and incubated at 37° C. for 0, 2, 4 or 6 hours. Subsequently, cells were stained with the HLA specific mAb followed by FITC conjugated goat anti mouse Ig mAb. For each time point, peptide induced HLA expression was calculated as: Mean fluorescence of peptide preincubated cells—Mean fluorescence of cells treated in similar conditions in the absence of peptide. DC50 (dissociation complex; DC) was defined as the time required for the loss of 50% of the HLA-A*0201/peptide complexes stabilized at t=0.
as §1

Consider LIGRKFGDPV [HSP 73], for which the Relative affinity in assay [1] is reported as greater than 20.
In the case of LLDVAPLSL [HSP 393], the “processing of the peptide: recognition of Hsp70 + HHD transfected COS cells by the specific murine CTL line” value in assay [2] is given as “are epitopes”. Besides, the “presentation of the epitope at the surface of Hsp70 over-expressing human tumor cells” value in assay [3] is reported as “epitope correctly presented at the surface of Hsp70 over-expressing tumors”. Also, the “induction of specific human CTL” value in assay [4] is “capable of stimulating specific human CTL”. Besides, the “induction of specific cytotoxic T cell immune response in HHD mice” value in assay [5] is reported as “capable of generating a specific cytotoxic T cell immune response”.
In the case of SLFEGIDFYT [HSP 286], the “Stability (hrs)” value in assay [6] is greater than 6 h hrs.

For the origin of these results see patent US20050267020A1, “Polypeptides derived from inducible hsp70 and pharmaceutical compositions containing the same” (priority 2001, published 2005).
